According to PubChem BioAssay (NCI):
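Five compound concentrations were applied to cells in 96-well plates for 48 hours; endpoints were derived by simple linear interpolation of the resulting dose-response curve. TGI is the concentration that stops growth completely.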

Columns and labels:
Test in all cases: NCI tumour cell line growth inhibition, 48 h
[1] = tested on: ACHN renal
[2] = tested on: TK-10 renal
[3] = tested on: SK-MEL-28 melanoma
[4] = tested on: RPMI-8226 leukemia
[5] = tested on: PC-3 prostate
[6] = tested on: SNB-75 CNS
[7] = tested on: NCI-H23 lung
[8] = tested on: SR leukemia
[9] = tested on: MOLT-4 leukemia
[10] = tested on: HS 578T breast
[11] = tested on: A498 renal
[12] = tested on: SK-MEL-2 melanoma
[13] = tested on: MDA-MB-231 breast
[14] = tested on: MALME-3M melanoma
[15] = tested on: SNB-19 CNS
[16] = tested on: MCF7 breast
[17] = tested on: RXF 393 renal
[18] = tested on: SW-620 colon
[19] = tested on: LOX IMVI melanoma
[20] = tested on: M14 melanoma
[21] = tested on: UACC-257 melanoma
[22] = tested on: EKVX NSCLC
[23] = tested on: CAKI-1 renal
[24] = tested on: BT-549 breast
[25] = tested on: HOP-62 NSCLC
[26] = tested on: OVCAR-4 ovarian
[27] = tested on: HT29 colon
[28] = tested on: HOP-92 NSCLC
[29] = tested on: COLO 205 colon
[30] = tested on: SN12C renal
[31] = tested on: 786-0 renal
[32] = tested on: HCT-15 colon
[33] = tested on: A549 NSCLC
[34] = tested on: NCI-H226 lung
[35] = tested on: NCI/ADR-RES ovarian
[36] = tested on: OVCAR-8 ovarian
[37] = tested on: K-562 leukemia
[38] = tested on: OVCAR-3 ovarian
[39] = tested on: SF-295 CNS
[40] = tested on: HCT-116 colon
[41] = tested on: NCI-H460 lung
[42] = tested on: OVCAR-5 ovarian
[43] = tested on: SF-268 CNS
[44] = tested on: IGROV1 ovarian
[45] = tested on: HL-60(TB) leukemia
[46] = tested on: MDA-MB-435
[47] = tested on: SK-OV-3 ovarian
[48] = tested on: U251 CNS
[49] = tested on: NCI-H522 lung
[50] = tested on: T-47D breast
[51] = tested on: KM12 colon
[52] = tested on: SF-539 CNS
[53] = tested on: SK-MEL-5 melanoma
[54] = tested on: UACC-62 melanoma
[55] = tested on: DU-145 prostate
[56] = tested on: UO-31 renal
[57] = tested on: CCRF-CEM leukemia
[58] = tested on: HCC-2998 colon

Work on OC1CCN(c2c3ccccc3nc3ccccc23)CC1 yielded a TGI [1] of 26.4 µM, a TGI [2] of 22.1 µM and a TGI [3] of 5.52 µM. It also gave a TGI [4] greater than 100 µM, a TGI [5] greater than 100 µM and a TGI [6] of 44.7 µM. It also gave a TGI [7] greater than 100 µM, a TGI [8] greater than 100 µM and a TGI [9] greater than 100 µM. The TGI [10] was greater than 100 µM, the TGI [11] was 35.6 µM and the TGI [12] was 27.6 µM. The TGI [13] was 84.9 µM, the TGI [14] was 36.9 µM and the TGI [15] was 75 µM. The TGI [16] was 10.3 µM, the TGI [17] was 17.5 µM and the TGI [18] was greater than 100 µM. It also gave a TGI [19] greater than 100 µM, a TGI [20] greater than 100 µM and a TGI [21] of 40.8 µM. It also gave a TGI [22] greater than 100 µM, a TGI [23] of 50.5 µM and a TGI [24] of 41.1 µM. It also gave a TGI [25] greater than 100 µM, a TGI [26] of 36.6 µM and a TGI [27] of 5.44 µM. For the same compound, the TGI [28] was greater than 100 µM, the TGI [29] was 9.45 µM and the TGI [30] was greater than 100 µM. It also gave a TGI [31] greater than 100 µM, a TGI [32] of 39.7 µM and a TGI [33] greater than 100 µM. It also gave a TGI [34] greater than 100 µM, a TGI [35] greater than 100 µM and a TGI [36] of 79 µM. It also gave a TGI [37] greater than 100 µM, a TGI [38] greater than 100 µM and a TGI [39] of 72.9 µM. It also gave a TGI [40] greater than 100 µM, a TGI [41] of 50.9 µM and a TGI [42] greater than 100 µM. It also gave a TGI [43] of 34 µM, a TGI [44] of 40.6 µM and a TGI [45] greater than 100 µM. It also gave a TGI [46] of 54.9 µM, a TGI [47] of 82.7 µM and a TGI [48] of 51.1 µM. For the same compound, the TGI [49] was 7.42 µM, the TGI [50] was 4.78 µM and the TGI [51] was greater than 100 µM. It also gave a TGI [52] greater than 100 µM, a TGI [53] of 35.6 µM and a TGI [54] of 99.3 µM. It also gave a TGI [55] greater than 100 µM.
Compound Cc1ccc(Nc2nc3nc[nH]c3c(=O)[nH]2)cc1CO has a TGI [1] of 29.4 µM, a TGI [2] of 31.9 µM and a TGI [3] of 32.1 µM. For the same compound, the TGI [4] was 33.7 µM, the TGI [5] was 25.4 µM and the TGI [6] was 29.2 µM. For the same compound, the TGI [7] was 33.9 µM, the TGI [8] was 37.7 µM and the TGI [9] was 34.3 µM. It also gave a TGI [10] of 43.9 µM, a TGI [12] of 31.2 µM and a TGI [13] of 24.7 µM. It also gave a TGI [14] of 30.4 µM, a TGI [15] of 24.6 µM and a TGI [16] of 30.4 µM. The TGI [17] was 30 µM, the TGI [56] was 29.5 µM and the TGI [18] was 32 µM. The TGI [19] was 36.5 µM, the TGI [20] was 25.5 µM and the TGI [21] was 31.2 µM. For the same compound, the TGI [22] was 28 µM, the TGI [23] was 29.3 µM and the TGI [24] was 28.4 µM. The TGI [26] was 31.4 µM, the TGI [57] was 36.2 µM and the TGI [27] was 22 µM. It also gave a TGI [28] of 21 µM, a TGI [29] of 27.8 µM and a TGI [31] of 29.1 µM. It also gave a TGI [32] of 29.9 µM, a TGI [33] of 10.2 µM and a TGI [34] of 31.8 µM. The TGI [35] was 29.8 µM, the TGI [36] was 30.4 µM and the TGI [37] was 40 µM. For the same compound, the TGI [38] was 29.2 µM, the TGI [39] was 29.6 µM and the TGI [40] was 25.4 µM. The TGI [41] was 30.7 µM, the TGI [42] was 33.6 µM and the TGI [43] was 35.8 µM. The TGI [44] was 28.3 µM, the TGI [45] was 21.6 µM and the TGI [46] was 29.6 µM. The TGI [47] was 27.7 µM, the TGI [49] was 24.3 µM and the TGI [50] was 27.2 µM. The TGI [51] was 22.7 µM, the TGI [58] was 28.9 µM and the TGI [53] was 31.2 µM. For the same compound, the TGI [54] was 25.9 µM and the TGI [55] was 33.6 µM.
